Here are results for 5 molecules from patent US8187508B2, “Base agent for electrical insulating oil” (Lion Corporation, priority 2005, dated 2012).

Structures are written as SMILES. Bounds are passed on as bounds.

Series [1] is described as follows: Kinetic viscosity (Canon Fenske viscometer, JIS K2283). Format: physicochemical. The text has this:
(§1) It will be noted that in the following Examples and Comparative Examples, an acid value, moisture content, kinetic viscosity, flash point, oxidation stability, dielectric breakdown voltage, specific permittivity, and a content of fatty acid triglyceride are, respectively, values measured according to the following methods. • (1) Acid value: determined by a method pursuant to a potentiometric method of JIS K1557. • (2) Moisture content: determined by a method pursuant to the Carl Fisher method of JIS K0068. • (3) Kinetic viscosity: determined by a method pursuant to the Canon Fenske viscometer of JIS K2283. • (4) Flash point: determined by a method pursuant to the Cleaveland open-cup method of JIS K2265. • (5) Oxidation stability: determined by a method pursuant to the electrical insulating oil testing method of JIS C2101. • (6) Dielectric breakdown voltage: determined by a method pursuant to the electric insulating oil testing method of JIS C2101. • (7) Specific permittivity: determined by a method pursuant to the electric insulating oil testing method of JIS C2101. • (8) Content of fatty acid triglyceride: about 40 mg of a sample was placed in a 3-ml vial container, to which 0.5 ml of pyridine, 0.4 ml of hexamethyldisilazane and 0.2 ml of trimethylchlorosilane were added, followed by trimethylsilylation at 80° C. for 30 minutes and subjecting the resulting supernatant liquid to gas chromatographic analysis.

Series [2] can be described thus: Oxidation stability test (JIS C2101). Format: physicochemical. Conditions: for Oxidation stability test, 120° C. after 75 hours: acid value after 120° C.; for Oxidation stability test, Initial value: acid value before the test. Here is the method:
In order to ensure good stability to oxygen and heat, the base agent for electrical insulating oils of the invention should preferably have a total acid value of not higher than 0.5 mg of KOH/g, more preferably not higher than 0.3 mg of KOH/g, after deterioration in an oxidation stability test (120° C., 75 hours) described in JIS C2101.
as §1

Series [3] can be described thus: Dielectric breakdown voltage (JIS C2101). Format: physicochemical.
Excerpt: as §1

A short description of series [4]: Specific permittivity (JIS C2101). Format: physicochemical.
Excerpt: as §1

A short description of series [5]: Flash point (Cleaveland open-cup method, JIS K2265). Format: physicochemical.
Excerpt: as §1

In another series the test system is human being. Conditions: in vivo; cited from earlier work.
For another series, the system named is rabbit. Conditions: in vivo; cited from earlier work.

For the molecule `CCCCCCCCCCCC(=O)OCC(CC)CCCC` (centres unmarked) [2-ethyl hexyl laurate, 2-ethylhexyl laurate, reference compound], in series [1], the “Kinetic viscosity (40° C.)” value is 5 mm^2/s. In series [2], the “Oxidation stability test, 120° C. after 75 hours” value worked out at 0.3 mgKOH/g and the “Oxidation stability test, Initial value” came to 0.002 mgKOH/g. In series [3], the Di-electric breakdown voltage was 78 KV/2.5 mm. Moreover, the “Specific permittivity (80° C.)” value in series [4] is listed as 2.7. In series [5], the Flash point stood at 175 °C.

Consider `CCCCC(CC)C(=O)OCC(COC(=O)C(CC)CCCC)OC(=O)C(CC)CCCC` (centres unmarked) [2-ethylhexanoic acid triglyceride], for which the “Dermal irritation average point” value with human being was “test: average point = 0.05”. In addition, the Eye irritation entry with rabbit is given as “rabbit, 100%, OECD 405 method: no”.

With `CCCCCCCC(=O)OCC(COC(=O)CCCCCCC)OC(=O)CCCCCCC` [base agent B, caprylic acid triglyceride], the “Kinetic viscosity (40° C.)” value in series [1] is given as 12.5 mm^2/s. In series [2], the “Oxidation stability test, 120° C. after 75 hours” value is listed as 0.4 mgKOH/g and the “Oxidation stability test, Initial value” worked out at 0.002 mgKOH/g. The same molecule had a Di-electric breakdown voltage in series [3] of 71 KV/2.5 mm. In addition, in series [4], the “Specific permittivity (80° C.)” value is 3.8. Moreover, the Flash point in series [5] was 235 °C.

As for `CCCCC(CC)C(=O)OCC(COC(=O)C(CC)CCCC)OC(=O)C(CC)CCCC` (centres unmarked) [base agent E, 2-ethylhexanoic acid triglyceride], the “Kinetic viscosity (40° C.)” value in series [1] worked out at 16 mm^2/s. Moreover, in series [2], the “Oxidation stability test, 120° C. after 75 hours” value was determined as 0.2 mgKOH/g and the “Oxidation stability test, Initial value” is 0.008 mgKOH/g. The Di-electric breakdown voltage in series [3] worked out at 73 KV/2.5 mm. The “Specific permittivity (80° C.)” value in series [4] worked out at 3.5. Further, the Flash point in series [5] is 220 °C.

`CC(CC(=O)OCC(COC(=O)CC(C)CC(C)(C)C)(COC(=O)CC(C)CC(C)(C)C)COC(=O)CC(C)CC(C)(C)C)CC(C)(C)C` (centres unmarked) [pentaerythritol ester of 3,5,5-trimethylhexanoic acid, reference compound]: in series [1], the “Kinetic viscosity (40° C.)” value was determined as 110 mm^2/s. For the same molecule, in series [2], the “Oxidation stability test, 120° C. after 75 hours” value came out at 0.8 mgKOH/g and the “Oxidation stability test, Initial value” was found to be 0.02 mgKOH/g. This molecule displayed a Di-electric breakdown voltage in series [3] of 55 KV/2.5 mm. Also, the “Specific permittivity (80° C.)” value in series [4] is over 3.0. This molecule also had a Flash point in series [5] of over 250 °C.
